Tests used:
[1] = Measuring of viscosity of curable compound (cone plate type rotatory viscometer); format: physicochemical; conditions: cone rotor, 50 rpm
Description: Viscosity of the thus-obtained curable compound was measured by a cone plate type rotatory viscometer (VISCOMETER TVE-22L, manufactured by TOKI SANGYO CO., LTD.) using a cone rotor (1°34′×R24) at a number of rotation of 50 rpm and at 25 degrees C. of hemathermal circulating water.

[2] = tested on: female rats of Slc: Wistar/ST series; experiment: Limiting test based on Acute Oral Toxicity Test (OECD TG423, Acute Toxic Class Method); format: in vivo, rat; conditions: single gavage dose 2,000 mg/kg weight of body, six animals per testing article, observed 14 days
From the text: The curable compounds of Example 1a, Example 4a, Comparative Example 1a, and Comparative Example 2a were subject to the limiting test based on Acute Oral Toxicity Test (OECD TG423) according to Acute Toxic Class Method in the following manner to evaluate safeness.
Regarding the curable compound of the present disclosure as test article, 24 female rats of Slc: Wistar/ST series of 5 week old as animal used were ordered for Japan SLC, Inc. The animals were habituated for one week. No abnormalities were found in all of the rats (animals used) during the habituation period.
Based on the body weights measured two days before the initiation of administration, they were categorized into four groups (six rats per group) by the body weight stratified random sampling method so that the body weight of each individual was within ±20% of the average body weight of all of the individuals. The individuals not classified into the groups were excluded from the test.
First group, Example 1a: Testing article: curable compound represented by the chemical structure a1-1, Amount of administration: 2,000 mg/kg weight of body, number of animals used: six
Second group, Example 4a: Testing article: curable compound represented by the chemical structure d1-1, Amount of administration: 2,000 mg/kg weight of body, number of animals used: six
Third group, Comparative Example 1a: Testing article: N,N-diethylacrylamide represented by the chemical structure (1), Amount of administration: 2,000 mg/kg weight of body, number of animals used: six
Fourth group, Comparative Example 2a: Testing article: Acrylamide represented by the chemical structure (2), Amount of administration: 2,000 mg/kg weight of body, number of animals used: six
100 mg of the testing article was weighed using a measuring flask and water was added as solvent to make 1 mL in total. […] The preparation liquid of the testing article was prepared on the day of administration.
The animals used were on fasting except for water for 17 hours before administration. The mass was measured after the fasting and the testing article was provided by gavage administration one time using a gastric tube. After the administration, no food was given for another three to four hours.
The administration was on one dose of 2,000 mg/kg weight of body and six animals were used per testing article.
Note that the observation was counted from the day of the initiation of administration being regarded as Day 1.
The number of animals who died during the test period was counted.

## C=CC(=O)N(CC)CC [Comparative Example 1a, N,N-diethylacrylamide, reference compound]
[1]
  Viscosity (25 degrees C., mPA · s): 2.6 mPA · s
[2]
  Safeness (number of dead): 6

## C=CC(=O)N(C)CCOC [Comparative Example 2a, reference compound]
[1]
  Viscosity (25 degrees C., mPA · s): 2.4 mPA · s
[2]
  Safeness (number of dead): 6

## C=CC(=O)N(CC(=O)OCC)CC(=O)OCC [Comparative Example 3a, reference compound]
[1]
  Viscosity (25 degrees C., mPA · s): 69.2 mPA · s

## C=CC(=O)N(C)CCOC(C)=O [Example 1a]
[1]
  Viscosity (25 degrees C., mPA · s): 8.4 mPA · s
[2]
  Safeness (number of dead): 3

## C=CC(=O)N(C)CCOC(=O)C(C)C [Example 2a]
[1]
  Viscosity (25 degrees C., mPA · s): 9.5 mPA · s

## C=CC(=O)N(CCOC(C)=O)C(C)(C)C [Example 3a]
[1]
  Viscosity (25 degrees C., mPA · s): 16.4 mPA · s

## C=CC(=O)N(C)CC(=O)OC [Example 4a]
[1]
  Viscosity (25 degrees C., mPA · s): 12.3 mPA · s
[2]
  Safeness (number of dead): 0

## C=CC(=O)N(C)CC(=O)OCC [Example 5a]
[1]
  Viscosity (25 degrees C., mPA · s): 11.4 mPA · s

## C=CC(=O)N(C)CC(=O)OCCCC [Example 6a]
[1]
  Viscosity (25 degrees C., mPA · s): 11.9 mPA · s

## C=CC(=O)N(C)CC(=O)OC(C)C [Example 7a]
[1]
  Viscosity (25 degrees C., mPA · s): 14.1 mPA · s

## C=CC(=O)N(CCC)CC(=O)OCC [Example 8a]
[1]
  Viscosity (25 degrees C., mPA · s): 20.4 mPA · s

## C=CC(=O)N(CC(=O)OC)C(C)C [Example 9a]
[1]
  Viscosity (25 degrees C., mPA · s): 25.4 mPA · s

## C=CC(=O)N(CC(=O)OC(C)C)C(C)C [Example 10a]
[1]
  Viscosity (25 degrees C., mPA · s): 22.1 mPA · s

## C=CC(=O)N(CCCCCC)CC(=O)OC [Example 11a]
[1]
  Viscosity (25 degrees C., mPA · s): 29.9 mPA · s

## C=CC(=O)N(CCCCCC)CC(=O)OCCCC [Example 12a]
[1]
  Viscosity (25 degrees C., mPA · s): 23.7 mPA · s

## C=CC(=O)N(C)C(C)C(=O)OC (stereo not shown) [Example 13a]
[1]
  Viscosity (25 degrees C., mPA · s): 8.9 mPA · s

## C=CC(=O)N(C)C(C)C(=O)OCC (stereo not shown) [Example 14a]
[1]
  Viscosity (25 degrees C., mPA · s): 6.9 mPA · s

## C=CC(=O)N(C)C(C)C(=O)OC(C)C (stereo not shown) [Example 15a]
[1]
  Viscosity (25 degrees C., mPA · s): 6.8 mPA · s

From patent US10781325B2, “Curable composition, curable ink, accommodating container, image forming device, image forming method, cured matter, and acrylamide compound” (Ricoh Company, Ltd., priority 2016, dated 2020)
